Measurements reported in US20260225997A1, “IONIZABLE AMINE LIPIDS” (Intellia Therapeutics, Inc., priority 2018, published 2026).
Read-outs that look alike come from different tables or passages of the source. One block for each compound: values may come before it.

Columns and labels:
[1] = pKa measurement of unformulated amine lipid (fluorescence, method of Jayaraman et al.); assay type: physicochemical; conditions: 100 μM in 0.1 M phosphate buffer pH 4.5-9.0
Description: The pKa of each amine lipid was determined according to the method in Jayaraman, et al. (Angewandte Chemie, 2012) with the following adaptations. […] Lipid was diluted to 100 μM in 0.1 M phosphate buffer (Boston Bioproducts) where the pH ranged from 4.5-9.0. Fluorescence intensity was measured using excitation and emission wavelengths of 321 nm and 448 nm.

[2] = test system: TTR; experiment: TTR editing in mouse liver by NGS after i.v. LNP delivery of Cas9 mRNA and sgRNA; assay type: in vivo; conditions: CD-1 female mice; for % Editing (TTR, liver): Example 55: 0.1 mpk i.v.
Description: Preparations of various LNP compositions were prepared with amine lipids. In assays for percent liver editing in mice, Cas9 mRNA and chemically modified sgRNA were formulated in LNPs, at either a 1:1 w/w ratio or a 1:2 w/w ratio. LNPs are formulated with a composition of a given ionizable lipid (e.g. an amine lipid), DSPC, cholesterol, and PEG-2k-DMG, with a 6.0 N:P ratio.
(§1) CD-1 female mice, ranging from 6-10 weeks of age were used in each study. Animals were weighed and grouped according to body weight for preparing dosing solutions based on group average weight. LNPs were dosed via the lateral tail vein in a volume of 0.2 mL per animal (approximately 10 mL per kilogram body weight). The animals were periodically observed post dose for adverse effects for at least 24 hours post dose. Animals were euthanized at 6 or 7 days by exsanguination via cardiac puncture under isoflurane anesthesia. Blood was collected into serum separator tubes or into tubes containing buffered sodium citrate for plasma as described herein. For studies involving in vivo editing, liver tissue was collected from each animal for DNA extraction and analysis.
Cohorts of mice were measured for liver editing by Next-Generation Sequencing (NGS).
In brief, to quantitatively determine the efficiency of editing at the target location in the genome, genomic DNA was isolated and deep sequencing was utilized to identify the presence of insertions and deletions introduced by gene editing.
PCR primers were designed around the target site (e.g., B2M), and the genomic area of interest was amplified. Additional PCR was performed according to the manufacturer's protocols (Illumina) to add the necessary chemistry for sequencing. The amplicons were sequenced on an Illumina MiSeq instrument. The reads were aligned to the […] after eliminating those having low quality scores. The resulting files containing the reads were mapped to the reference genome (BAM files), where reads that overlapped the target region of interest were selected and the number of wild type reads versus the number of reads which contain an insertion, substitution, or deletion was calculated.
The editing percentage (e.g., the “editing efficiency” or “percent editing”) is defined as the total number of sequence reads with insertions or deletions over the total number of sequence reads, including wild type.
CD-1 female mice were dosed i.v. at 0.1 mpk or 0.3 mpk. At 6 days post-dose, animals were sacrificed. For animals dosed with G282 targeting TTR, blood and the liver were collected and serum TTR and editing were measured. For animals dosed with G650 targeting B2M, liver was collected and editing was measured.

[3] = test system: TTR; experiment: Transthyretin (TTR) ELISA analysis of mouse serum after LNP dosing; assay type: in vivo; conditions: for response vs control in vivo at 0.1 mg/kg / response vs control in vivo at 0.03 mg/kg: read-out: Serum TTR % TSS
Description: as §1
CD-1 female mice were dosed i.v. at 0.1 mpk or 0.3 mpk. […] For animals dosed with G282 targeting TTR, blood and the liver were collected and serum TTR and editing were measured. For animals dosed with G650 targeting B2M, liver was collected and editing was measured.
Blood was collected and the serum was isolated as indicated. The total mouse TTR serum levels were determined using a Mouse Prealbumin (Transthyretin) ELISA Kit (Aviva Systems Biology, Cat. OKIA00111). Briefly, sera were serial diluted with kit sample diluent to a final dilution of 10,000-fold for 0.1 mpk dose and 2,500-fold for 0.3 mpk. This diluted sample was then added to the ELISA plates and the assay was then carried out according to directions.

[4] = Example 55: 0.1 mpk i.v., 7 days post-dose, G282 1:1
[5] = Example 61: 0.1 mpk i.v., 7 days post-dose, G282 1:1
[6] = Mus musculus, iv, 168 h, Example 61: 0.1 mpk i.v., 7 days post-dose, G282 1:1
[7] = Example 59: 0.1 mpk i.v., 7 days post-dose, G282 1:1
[8] = Example 62: 0.03 mpk i.v., 7 days post-dose, G282 1:2
[9] = Example 62: 0.1 mpk i.v., 7 days post-dose, G282 1:2
[10] = Example 64: Dose 0.03 mpk (table) i.v., 7 days post-dose, G282 1:1
[11] = Mus musculus, iv, 168 h, Example 62: 0.03 mpk i.v., 7 days post-dose, G282 1:2
[12] = Mus musculus, iv, 168 h, Example 62: 0.1 mpk i.v., 7 days post-dose, G282 1:2
[13] = Example 58: 0.1 mpk i.v., 6 days post-dose, G282 1:1
[14] = Mus musculus, iv, 144 h, Example 58: 0.1 mpk i.v., 6 days post-dose, G282 1:1

- pKa [1]: 6.16
Structure (SMILES): CCCCCCCCCOC(=O)CCCCCCCN(CCO)CCCCCCCC(OCCCCCCC)OCCCCCCC [Compound 7, nonyl 8-((8,8-bis(heptyloxy)octyl)(2-hydroxyethyl)amino)octanoate]
- % Editing (TTR, liver) ([2]; 7 days post-dose, G282 1:1): 50%
- Serum TTR [3, 4]: 234 µg/mL
- Serum TTR (% TSS) [3, 4]: 21 % TSS

- pKa [1]: 6.12
Structure (SMILES): CCCCCCCCCOC(=O)CCCCCCCN(CCO)CCCCCCCCC(OCCCCCCCC)OCCCCCCCC [Compound 9, nonyl 8-((9,9-bis(octyloxy)nonyl)(2-hydroxyethyl)amino octanoate]
- Editing Mean % Indel [2, 5]: 52.1%
- Serum TTR [3, 5]: 218 µg/mL
- response vs control in vivo at 0.1 mg/kg [3, 6]: 17%

- pKa [1]: 6.34
Structure (SMILES): CCCCCCCCOC(CCCCCCCN(CCO)CCCCCCCC(=O)OCCCCCCC)OCCCCCCCC [Compound 15, heptyl 8-((8,8-bis(octyloxy)octyl)(2-hydroxyethyl)amino)octanoate]
- Editing Mean % Indel [2, 13]: 50.3%
- Editing Mean % Indel [2, 8]: 16.4%
- Editing Mean % Indel [2, 9]: 57.4%
- Serum TTR [3, 13]: 179 µg/mL
- Serum TTR [3, 8]: 548 µg/mL
- Serum TTR [3, 9]: 180 µg/mL
- response vs control in vivo at 0.1 mg/kg [3, 14]: 18%
- response vs control in vivo at 0.03 mg/kg [3, 11]: 86%
- response vs control in vivo at 0.1 mg/kg [3, 12]: 28%

- pKa [1]: 6.3
Structure (SMILES): CCCCCCCCCOC(=O)CCCCCCCN(CCCO)CCCCCCC(OCCCCCCCC)OCCCCCCCC [Compound 37, nonyl 8-((7,7-bis(octyloxy)heptyl)(3-hydroxypropyl)amino)octanoate]

- pKa [1]: 7.81
Structure (SMILES): CCCCCCCCCOC(=O)CCCCCCCN(CCCN)CCCCCCC(OCCCCCCCC)OCCCCCCCC [Compound 38, nonyl 8-((3-aminopropyl)(7,7-bis(octyloxy)heptyl)amino)octanoate]

- pKa [1]: 6.93
Structure (SMILES): CCCCCCCCCOC(=O)CCCCCCCN(CCCCCCC(OCCCCCCCC)OCCCCCCCC)CCNS(C)(=O)=O [Compound 47, nonyl 8-((7,7-bis(octyloxy)heptyl)(2-(methylsulfonamido)ethyl)amino)octanoate]

Second part, the compound before the results:

Structure (SMILES): CCCCCCCCCOC(=O)CCCCCCCN(CCO)CCCCCCCC(OCCCCCC)OCCCCCC [Compound 8, nonyl 8-((8,8-bis(hexyloxy)octyl)(2-hydroxyethyl)amino)octanoate]
- pKa [1]: 6.37
- % Editing (TTR, liver) ([2]; 7 days post-dose, G282 1:1): 43%
- Serum TTR [3, 4]: 387 µg/mL
- Serum TTR (% TSS) [3, 4]: 34 % TSS

Structure (SMILES): CCCCCCCCCOC(=O)CCCCCCCN(CCO)CCCCCCC(OCCCCCCCC)OCCCCCCCC [Compound 10, nonyl 8-((7,7-bis(octyloxy)heptyl)(2-hydroxyethyl)amino)octanoate]
- pKa [1]: 6.05
- % Editing (TTR, liver) ([2]; 7 days post-dose, G282 1:1): 50%
- Editing Mean % Indel [2, 7]: 60.1%
- Editing Mean % Indel [2, 5]: 47.2%
- Editing Mean % Indel [2, 8]: 15.6%
- Editing Mean % Indel [2, 9]: 51.3%
- Editing Mean % Indel [2, 10]: 27.2%
- Serum TTR [3, 4]: 206 µg/mL
- Serum TTR (% TSS) [3, 4]: 18 % TSS
- Serum TTR [3, 7]: 80 µg/mL
- Serum TTR [3, 5]: 330 µg/mL
- Serum TTR [3, 8]: 424 µg/mL
- Serum TTR [3, 9]: 179 µg/mL
- Serum TTR [3, 10]: 409.2 µg/mL
- response vs control in vivo at 0.1 mg/kg ([3]; Mus musculus, iv, 168 h, Example 59: 0.1 mpk i.v., 7 days post-dose, G282 1:1): 9%
- response vs control in vivo at 0.1 mg/kg [3, 6]: 26%
- response vs control in vivo at 0.03 mg/kg [3, 11]: 67%
- response vs control in vivo at 0.1 mg/kg [3, 12]: 28%
- inhibition in vivo at 0.03 mg/kg ([3]; Mus musculus, iv, 168 h, Example 64: Dose 0.03 mpk (table) i.v., 7 days post-dose, G282 1:1, read-out: Serum TTR (% KD)): 28.5%

Structure (SMILES): CCCCCCCCCCOC(=O)CCCCCCN(CCO)CCCCCCCC(OCCCCCCCC)OCCCCCCCC [Compound 12, decyl 7-((8,8-bis(octyloxy)octyl)(2-hydroxyethyl)amino)heptanoate]
- pKa [1]: 6.38
- Editing Mean % Indel [2, 13]: 33.0%
- Serum TTR [3, 13]: 490 µg/mL
- response vs control in vivo at 0.1 mg/kg [3, 14]: 50%

Structure (SMILES): CCCCCCCCCCCCOC(=O)CCCCN(CCO)CCCCCCCC(OCCCCCCCC)OCCCCCCCC [Compound 14, dodecyl 5-((8,8-bis(octyloxy)octyl)(2-hydroxyethyl)amino)pentanoate]
- pKa [1]: 6.46
- Editing Mean % Indel [2, 13]: 12.1%
- Serum TTR [3, 13]: 928 µg/mL
- response vs control in vivo at 0.1 mg/kg [3, 14]: 94%

Structure (SMILES): CCCCCCCCOC(CCCCCCCN(CCO)CCCCCCCC(=O)OC(C)CCCCCCCC)OCCCCCCCC (stereo not drawn) [Compound 21, decan-2-yl 8-((8,8-bis(octyloxy)octyl)(2-hydroxyethyl)amino)octanoate]
- pKa [1]: 5.99

Structure (SMILES): CCCCCCCCOC(CCCCCCCN(CCO)CCCCCCCCCCOC(=O)CCCCCC)OCCCCCCCC [Compound 24, 10-((8,8-bis(octyloxy)octyl)(2-hydroxyethyl)amino)decyl heptanoate]
- pKa [1]: 5.95

Structure (SMILES): CCCCCCCCOC(CCCCCCN(CCO)CCCCCCCC(=O)OCCCCCCC)OCCCCCCCC [Compound 31, heptyl 8-((7,7-bis(octyloxy)heptyl)(2-hydroxyethyl)amino)octanoate]
- pKa [1]: 6.47

Structure (SMILES): CCCCCCCCOC(CCCCCCN(CCO)CCCCCCCC(=O)OC(C)CCCCCC)OCCCCCCCC (stereo not drawn) [Compound 32, octan-2-yl 8-((7,7-bis(octyloxy)heptyl)(2-hydroxyethyl)amino)octanoate]
- pKa [1]: 6.36

Structure (SMILES): CCCCCCCCOC(CCCCCCN(CCO)CCCCCCCC(=O)OC(CC)CCCCCC)OCCCCCCCC (stereo not drawn) [Compound 33, nonan-3-yl 8-((7,7-bis(octyloxy)heptyl)(2-hydroxyethyl)amino)octanoate]
- pKa [1]: 6.33

Structure (SMILES): CCCCCCCCOC(CCCCCCN(CCO)CCCCCCCC(=O)OCCCCC)OCCCCCCCC [Compound 34, pentyl 8-((7,7-bis(octyloxy)heptyl)(2-hydroxyethyl)amino)octanoate]
- pKa [1]: 6.47

Structure (SMILES): CCCCCCCCOC(CCCCCCN(CCO)CCCCCCCC(=O)OC(CC)CCCC)OCCCCCCCC (stereo not drawn) [Compound 35, heptan-3-yl 8-((7,7-bis(octyloxy)heptyl)(2-hydroxyethyl)amino)octanoate]
- pKa [1]: 6.37

Structure (SMILES): CCCCCCCCCOC(=O)CCCCCCCN(CCN)CCCCCCC(OCCCCCCCC)OCCCCCCCC [Compound 36, nonyl 8-((2-aminoethyl)(7,7-bis(octyloxy)heptyl)amino)octanoate]
- pKa [1]: 7.2

Structure (SMILES): CCCCCCCCCOC(=O)CCCCCCCN(CCCCCCC(OCCCCCCCC)OCCCCCCCC)CCCNS(C)(=O)=O [Compound 48, nonyl 8-((7,7-bis(octyloxy)heptyl)(3-(methylsulfonamido)propyl)amino)octanoate]
- pKa [1]: 7.61

Structure (SMILES): CCCCCCCCCOC(=O)CCCCCCCN(CCCCCCC(OCCCCCCCC)OCCCCCCCC)CCOC(C)=O [Compound 49, nonyl 8-((2-acetoxyethyl)(7,7-bis(octyloxy)heptyl)amino)octanoate]
- pKa [1]: 5.32

Structure (SMILES): CCCCCCCCCOC(=O)CCCCCCCN(CCCCCCC(OCCCCCCCC)OCCCCCCCC)CCCOC(C)=O [Compound 50, nonyl 8-((3-acetoxypropyl)(7,7-bis(octyloxy)heptyl)amino)octanoate]
- pKa [1]: 5.45
